Data as given in US20190117616A1, “METHOD FOR REGULATING KDM4A, KDM4B, AND KDM4C ACTIVITY” (National Tsing Hua University, priority 2017, published 2019).

How the values were obtained:
KDM4B = molecular target: T1, KDM4B (Homo sapiens, UniProt O94953); test: KDM4B enzymatic inhibition (residual activity, IC50, kinetics); format: biochemical; conditions: for Inhibitory effects of Myricetin analogues against KDM4B activity: Table 1 (not given), 100 μM compounds
T1 sequence (O94953 1-1096): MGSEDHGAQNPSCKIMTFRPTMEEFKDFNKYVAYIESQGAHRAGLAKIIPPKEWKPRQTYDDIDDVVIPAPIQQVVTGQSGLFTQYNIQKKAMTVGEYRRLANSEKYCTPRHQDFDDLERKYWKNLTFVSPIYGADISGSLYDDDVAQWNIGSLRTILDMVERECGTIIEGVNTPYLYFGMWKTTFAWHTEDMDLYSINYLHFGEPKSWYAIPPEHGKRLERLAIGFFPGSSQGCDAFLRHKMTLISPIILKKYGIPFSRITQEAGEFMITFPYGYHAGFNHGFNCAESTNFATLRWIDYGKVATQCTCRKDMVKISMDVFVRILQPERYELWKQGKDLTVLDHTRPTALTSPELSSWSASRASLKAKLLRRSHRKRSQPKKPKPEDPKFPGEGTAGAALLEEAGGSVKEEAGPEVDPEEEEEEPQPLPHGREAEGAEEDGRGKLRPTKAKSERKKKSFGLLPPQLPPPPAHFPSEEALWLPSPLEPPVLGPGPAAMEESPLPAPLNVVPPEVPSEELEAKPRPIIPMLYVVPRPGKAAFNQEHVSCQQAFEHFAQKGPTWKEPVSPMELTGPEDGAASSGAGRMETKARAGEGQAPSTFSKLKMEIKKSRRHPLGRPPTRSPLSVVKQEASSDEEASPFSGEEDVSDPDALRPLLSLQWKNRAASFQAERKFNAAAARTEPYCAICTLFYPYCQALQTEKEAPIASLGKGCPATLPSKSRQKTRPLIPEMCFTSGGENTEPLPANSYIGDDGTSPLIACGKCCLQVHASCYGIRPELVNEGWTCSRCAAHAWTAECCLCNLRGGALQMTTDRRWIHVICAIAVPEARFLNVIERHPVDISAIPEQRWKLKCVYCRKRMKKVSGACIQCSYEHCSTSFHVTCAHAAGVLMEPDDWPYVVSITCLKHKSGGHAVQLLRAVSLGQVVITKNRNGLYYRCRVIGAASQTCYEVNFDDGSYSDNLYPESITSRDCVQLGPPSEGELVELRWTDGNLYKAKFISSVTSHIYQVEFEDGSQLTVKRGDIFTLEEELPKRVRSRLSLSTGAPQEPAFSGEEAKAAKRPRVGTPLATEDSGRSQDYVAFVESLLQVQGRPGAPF

herpes virus = conditions: literature; cited from earlier work
JMJD2E/KDM4E = molecular target: T2, JMJD2E/KDM4E (Homo sapiens, UniProt B2RXH2); conditions: in vitro, literature; cited from earlier work
T2 sequence (B2RXH2 1-506): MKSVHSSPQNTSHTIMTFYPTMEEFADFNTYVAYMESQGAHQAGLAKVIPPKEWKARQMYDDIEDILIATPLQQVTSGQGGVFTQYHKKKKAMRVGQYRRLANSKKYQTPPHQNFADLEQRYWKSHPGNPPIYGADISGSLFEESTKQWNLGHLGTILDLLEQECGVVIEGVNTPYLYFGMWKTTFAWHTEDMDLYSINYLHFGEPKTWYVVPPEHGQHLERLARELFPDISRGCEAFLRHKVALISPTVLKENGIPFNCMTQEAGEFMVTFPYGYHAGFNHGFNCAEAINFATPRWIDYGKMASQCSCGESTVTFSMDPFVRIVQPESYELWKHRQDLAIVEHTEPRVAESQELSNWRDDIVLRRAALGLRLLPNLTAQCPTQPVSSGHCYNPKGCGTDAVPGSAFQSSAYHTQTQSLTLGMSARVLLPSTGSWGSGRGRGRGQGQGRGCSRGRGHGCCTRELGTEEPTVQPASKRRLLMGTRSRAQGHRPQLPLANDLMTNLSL

[1] = literature; cited from earlier work
LNCaP cells = test: MTT cell growth assay, LNCaP; format: cell-based; conditions: different concentrations over 4 days
Excerpt: (§1) Whether Myricetin blocked cell growth of AR+ cells was next evaluated.

PZ-HPV-7 cells = test: MTT assay, immortalized normal PZ-HPV-7; format: cell-based; conditions: different concentrations over 4 days
Excerpt: as §1

KDM4C [2] = molecular target: T3, KDM4C (Homo sapiens, UniProt Q9H3R0); test: H3 demethylation by bacteria-expressed KDM4C, western blot; format: biochemical; conditions: 100 μM inhibitor, 10 μM enzyme, 5 μM H3, 37° C., 30 min
T3 sequence (Q9H3R0 1-1056): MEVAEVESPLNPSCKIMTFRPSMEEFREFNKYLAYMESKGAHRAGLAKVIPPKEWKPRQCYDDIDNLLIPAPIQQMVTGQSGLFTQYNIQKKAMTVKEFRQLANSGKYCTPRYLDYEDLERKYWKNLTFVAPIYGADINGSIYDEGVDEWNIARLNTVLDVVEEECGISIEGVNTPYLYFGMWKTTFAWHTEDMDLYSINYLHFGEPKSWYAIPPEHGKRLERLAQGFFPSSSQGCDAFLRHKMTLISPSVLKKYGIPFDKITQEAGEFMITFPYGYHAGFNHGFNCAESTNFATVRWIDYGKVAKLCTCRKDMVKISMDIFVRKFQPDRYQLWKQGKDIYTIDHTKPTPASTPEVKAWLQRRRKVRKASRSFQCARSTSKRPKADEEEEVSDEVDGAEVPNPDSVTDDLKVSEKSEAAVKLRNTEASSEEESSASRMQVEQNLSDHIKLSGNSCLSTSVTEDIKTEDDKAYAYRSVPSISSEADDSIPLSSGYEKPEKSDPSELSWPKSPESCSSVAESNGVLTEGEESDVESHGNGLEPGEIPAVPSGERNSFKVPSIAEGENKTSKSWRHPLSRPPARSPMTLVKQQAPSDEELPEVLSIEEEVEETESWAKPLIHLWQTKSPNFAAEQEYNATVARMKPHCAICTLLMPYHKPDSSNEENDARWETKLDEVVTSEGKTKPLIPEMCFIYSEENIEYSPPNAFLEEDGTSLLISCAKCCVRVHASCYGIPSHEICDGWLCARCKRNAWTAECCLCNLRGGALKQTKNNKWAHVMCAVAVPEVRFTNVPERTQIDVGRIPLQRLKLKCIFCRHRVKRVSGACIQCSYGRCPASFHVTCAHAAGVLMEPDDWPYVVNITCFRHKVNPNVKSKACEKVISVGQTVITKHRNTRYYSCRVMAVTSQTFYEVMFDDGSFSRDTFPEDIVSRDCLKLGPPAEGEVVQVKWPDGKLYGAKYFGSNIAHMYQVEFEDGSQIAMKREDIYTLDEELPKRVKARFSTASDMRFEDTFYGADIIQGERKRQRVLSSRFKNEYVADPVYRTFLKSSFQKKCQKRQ

KDM4C [3] = molecular target: T3, KDM4C; conditions: toward α-ketoglutarate, FIG. 2A
C4-2B xenografts [4] = test: C4-2B xenograft tumor growth in nude mice; format: in vivo; conditions: C4-2B xenograft model
C4-2B cells [5] = system: C4-2B cells
C4-2B cells [6] = test: MTT cell proliferation assay, C4-2B; format: cell-based; conditions: different concentrations over 4 days
Excerpt: as §1

[7] = system: H3K9me3/H3K36me3 in C4-2B cells; test: H3K9me3 and H3K36me3 levels in treated C4-2B cells, western blot; format: cell-based; conditions: treated for two days, cell lysates
Excerpt: FIG. 5B: H3K9me3 and H3K36me3 levels in Myricetin-treated C4-2B cells for two days. The H3K9me3 and H3K36me3 signals are detected in cell lysates by western blot analysis.
as §1

C4-2B cells [8] = test: Cell viability of C4-2B, PLGA-Myricetin versus free Myricetin; conditions: read-out: IC50, cell viability (cytotoxicity) of C4-2B cells
C4-2B xenografts [9] = test: Ki-67 and CD31 immunohistochemistry of xenograft tumor sections; format: in vivo, nude mice; conditions: FIG. 7B
Description: FIG. 7B: Ki-67 and CD31 immunohistochemistry staining of the tumor sections isolated from the xenografts.
The endothelial cell-specific marker CD31 in xenografts was also determined.

O=c1c(O)c(-c2ccc(O)c(O)c2)oc2c(O[C@@H]3O[C@H](CO)[C@@H](O)[C@H](O)[C@H]3O)c(O)cc(O)c12 [Gossypin]
Inhibitory effects of Myricetin analogues against KDM4B activity (KDM4B): significant inhibitory effects

COc1cc(-c2oc3cc(O)cc(O)c3c(=O)c2O)ccc1O [Isorhamnetin]
Inhibitory effects of Myricetin analogues against KDM4B activity (KDM4B): significant inhibitory effects

O=c1c(O)c(-c2ccc(O)cc2)oc2cc(O)cc(O)c12 [Kaempferol]
Inhibitory effects of Myricetin analogues against KDM4B activity (KDM4B): significant inhibitory effects

CN(C)CCCNC(=O)c1ccc(-c2cc(O)c3ncccc3c2)cc1 [ML324]
KDM4A-dependent herpes virus-mediated replication in infected cells (herpes virus): blocked
Inhibitory activity toward JMJD2E/KDM4E (JMJD2E/KDM4E): submicromolar
Cell permeability [1]: good
In vitro ADME properties [1]: good

O=c1c(O)c(-c2cc(O)c(O)c(O)c2)oc2cc(O)cc(O)c12 [Myricetin]
Cell growth of LNCaP (LNCaP cells): significantly reduced level of cell growth
Effect on immortalized normal PZ-HPV-7 line (PZ-HPV-7 cells): essentially no effect
Demethylation of H3K9me3 by KDM4C (KDM4C [2]): significantly reduced such an activity
Enzymatic inhibitory kinetics, mode (KDM4C) (KDM4C [3]): competitive mode
Antitumor activity compared with the vehicle control group (C4-2B xenografts [4]): significant antitumor activity
Cytotoxic effect alone, compared with enzalutamide alone (C4-2B cells [5]): better cytotoxic effect
Cell proliferation of C4-2B (C4-2B cells [6]): blocked
H3K9me3 level in C4-2B cells [7]: dose-dependent increased level
H3K36me3 signal in C4-2B cells [7]: relatively comparable signal
IC50 (KDM4B): 1.3 µM
Enzymatic inhibitory kinetics, mode (KDM4B) (KDM4B; toward α-ketoglutarate, FIG. 2A): competitive inhibition mode
IC50 (C4-2B cells [8]): 38.3 µM

O=c1c(O)c(-c2ccc(O)c(O)c2)oc2cc(O)cc(O)c12 [Quercetin]
Inhibitory effects of Myricetin analogues against KDM4B activity (KDM4B): significant inhibitory effects

CNC(=O)c1ccc(N2C(=S)N(c3ccc(C#N)c(C(F)(F)F)c3)C(=O)C2(C)C)cc1F [enzalutamide]
Antitumor activity compared with the vehicle control group (C4-2B xenografts [4]): significant antitumor activity
Endothelial cell-specific marker CD31 in xenografts (C4-2B xenografts [9]): significantly higher level of CD31 was seen in the vehicle group
Expression of proliferation marker Ki-67 in xenografts (C4-2B xenografts [9]): significantly lower expression
